Reference: PubChem BioAssay AID743425 (Vanderbilt Specialized Chemistry Center, 2014)
The source made the active and inactive calls. No rule for the calls is given here.

Assays:
[1] = biological target: Metabotropic glutamate receptor 8 (Homo sapiens) (UniProt O00222); test: mGlu8 positive allosteric modulator potency, dose response, rat receptor, calcium (AID 743425); conditions: rat mGlu8, Fluo-4 calcium, glutamate EC20 potentiation
[2] = biological target: Metabotropic glutamate receptor 8 (Rattus norvegicus) (UniProt P70579); test: as above; conditions: rat mGlu8, Fluo-4 calcium, glutamate EC20 potentiation; hits give high values
Metabotropic glutamate receptor 8 (Rattus norvegicus), sequence (P70579 whole entry, looked up): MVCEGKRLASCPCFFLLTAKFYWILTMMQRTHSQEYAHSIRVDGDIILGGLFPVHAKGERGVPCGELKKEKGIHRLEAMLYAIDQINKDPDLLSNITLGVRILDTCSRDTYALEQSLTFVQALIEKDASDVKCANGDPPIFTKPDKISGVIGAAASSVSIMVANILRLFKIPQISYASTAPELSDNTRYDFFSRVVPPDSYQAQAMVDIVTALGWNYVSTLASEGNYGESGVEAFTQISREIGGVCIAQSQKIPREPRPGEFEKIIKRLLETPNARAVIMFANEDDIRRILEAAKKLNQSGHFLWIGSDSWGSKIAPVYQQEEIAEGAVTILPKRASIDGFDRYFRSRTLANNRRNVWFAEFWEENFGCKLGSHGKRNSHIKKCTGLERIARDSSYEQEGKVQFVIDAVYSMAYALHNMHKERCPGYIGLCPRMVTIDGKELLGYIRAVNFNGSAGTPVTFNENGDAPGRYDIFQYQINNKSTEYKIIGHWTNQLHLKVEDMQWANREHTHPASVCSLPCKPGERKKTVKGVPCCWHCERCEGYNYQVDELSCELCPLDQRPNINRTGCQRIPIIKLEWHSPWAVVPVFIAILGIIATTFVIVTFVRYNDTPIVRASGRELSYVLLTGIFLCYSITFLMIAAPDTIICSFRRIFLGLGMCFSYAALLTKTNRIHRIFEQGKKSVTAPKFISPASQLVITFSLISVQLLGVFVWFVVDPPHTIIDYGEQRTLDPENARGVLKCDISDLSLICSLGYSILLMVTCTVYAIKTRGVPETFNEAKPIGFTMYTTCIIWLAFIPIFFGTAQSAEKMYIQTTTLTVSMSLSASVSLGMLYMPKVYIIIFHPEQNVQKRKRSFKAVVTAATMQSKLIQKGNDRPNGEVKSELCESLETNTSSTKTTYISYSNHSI

Metabotropic glutamate receptor 8 (Homo sapiens), sequence (O00222 whole entry, looked up): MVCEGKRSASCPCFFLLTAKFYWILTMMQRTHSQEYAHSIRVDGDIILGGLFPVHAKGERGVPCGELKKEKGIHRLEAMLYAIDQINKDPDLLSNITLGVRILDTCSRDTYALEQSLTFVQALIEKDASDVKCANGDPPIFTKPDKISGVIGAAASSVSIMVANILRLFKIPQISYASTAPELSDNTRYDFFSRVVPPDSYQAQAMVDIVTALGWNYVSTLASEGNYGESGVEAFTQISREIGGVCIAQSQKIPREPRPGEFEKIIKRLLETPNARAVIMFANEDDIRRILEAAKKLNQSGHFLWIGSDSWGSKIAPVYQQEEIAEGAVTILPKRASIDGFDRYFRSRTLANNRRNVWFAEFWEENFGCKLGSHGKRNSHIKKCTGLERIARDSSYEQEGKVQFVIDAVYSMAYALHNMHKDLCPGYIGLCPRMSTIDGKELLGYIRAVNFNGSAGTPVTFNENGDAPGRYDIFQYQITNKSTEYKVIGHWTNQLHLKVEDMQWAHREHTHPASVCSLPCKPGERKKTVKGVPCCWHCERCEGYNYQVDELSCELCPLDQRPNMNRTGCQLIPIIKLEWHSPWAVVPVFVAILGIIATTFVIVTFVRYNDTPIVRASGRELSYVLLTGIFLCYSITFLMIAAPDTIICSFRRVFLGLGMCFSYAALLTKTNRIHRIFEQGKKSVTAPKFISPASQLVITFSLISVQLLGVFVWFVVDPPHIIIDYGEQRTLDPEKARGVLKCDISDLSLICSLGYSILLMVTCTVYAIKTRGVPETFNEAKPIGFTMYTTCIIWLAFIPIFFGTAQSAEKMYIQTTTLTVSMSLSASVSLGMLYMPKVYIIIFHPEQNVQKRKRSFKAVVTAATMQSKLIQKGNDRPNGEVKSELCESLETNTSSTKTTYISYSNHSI

Row | SMILES | EC50 [1] [µM] | % glutamate max [2]
1 | COC(=O)c1ccc(-n2c(C)cc(C(=O)CSc3ccc(N(C)C(C)=O)cc3)c2C)cc1 | 3.3 | 
2 | COC(=O)c1ccc(-n2c(C)cc(C(=O)COc3ccc(OC(C)=O)cc3)c2C)cc1 | 10 | 
3 | CCn1c(C)cc(C(=O)CSc2ccc(NC(C)=O)cc2)c1C | 10 | 
4 | CC(=O)Nc1ccc(OCC(=O)c2cc(C)n(-c3ccc(OC(F)F)cc3)c2C)cc1 | 3.5 | 
5 | COC(=O)c1ccc(-n2c(C)cc(C(=O)CNc3ccc(C(=O)O)cc3)c2C)cc1 |  | inactive
6 | CC(=O)Nc1ccc(SCC(=O)c2cc(C)n(-c3nc(C)cs3)c2C)cc1 | 10 | 
7 | CC(=O)Nc1ccc(SCC(=O)c2cc(C)n(-c3ccc(S(N)(=O)=O)cc3)c2C)cc1 | 3.16 | 
8 | COC(=O)c1ccc(-n2c(C)cc(C(=O)COc3ccc(NC(C)=O)cc3)c2C)cc1 | 3.4 | 
9 | COC(=O)c1ccc(-n2c(C)cc(C(=O)CSCc3cccc(C)c3)c2C)cc1 | 3.16 | 
10 | COC(=O)c1ccc(-n2c(C)cc(C(=O)COc3cccc(N(C)C)c3)c2C)cc1 |  | inactive
11 | CCOc1ccc(-n2c(C)cc(C(=O)CSc3ccc(OC)cc3)c2C)cc1 | 3.16 | 
12 | CC(=O)Nc1ccc(SCC(=O)c2cc(C)n(CC3CCCO3)c2C)cc1 (stereo not drawn) | 3.44 | 

Other lines, results leading:

Row | EC50 [1] [µM] | % glutamate max [2] | SMILES
13 | 0.23 |  | COc1ccc(CSCC(=O)c2cc(C)n(-c3ccc(OC(F)F)cc3)c2C)cc1
14 | 3.16 |  | CC(=O)Nc1ccc(SCC(=O)c2cc(C)n(-c3ccccc3F)c2C)cc1
15 | 3.16 |  | CCOc1ccc(-n2c(C)cc(C(=O)CSCc3ccc(OC)cc3)c2C)cc1
16 | 0.93 |  | COC(=O)c1ccc(-n2c(C)cc(C(=O)CSc3ccc(NC(C)=O)cc3)c2C)cc1
17 | 3.16 |  | COc1ccc(SCC(=O)c2cc(C)n(-c3ccc(OC(F)F)cc3)c2C)cc1
18 | 1.5 |  | CC(=O)Nc1ccc(SCC(=O)c2cc(C)n(-c3cccc(F)c3)c2C)cc1
19 | 3.16 |  | CCOc1ccc(-n2c(C)cc(C(=O)CSCc3cccc(C)c3)c2C)cc1
20 | 1.14 |  | CC(=O)Nc1ccc(SCC(=O)c2cc(C)n(CC3COc4ccccc4O3)c2C)cc1 (stereo not drawn)
21 | 3.16 |  | Cc1ccc(CSCC(=O)c2cc(C)n(-c3ccc(OC(F)F)cc3)c2C)cc1
22 | 1.6 |  | COC(=O)c1ccc(-n2c(C)cc(C(=O)CSCc3ccc(OC)cc3)c2C)cc1
23 | 1.6 |  | CC(=O)Nc1ccc(SCC(=O)c2cc(C)n(CCc3cccs3)c2C)cc1
